# Earlier results as cited in patent US10231947B2, “Isochroman compounds and methods of use thereof” (ARIZONA BOARD OF REGENTS ON BEHALF OF ARIZONA STATE …, priority 2017, dated 2019).
# pEC50, pKd: −log10 of the molar value.
# Legend:
# hRXRβ = hRXRβ (Homo sapiens, UniProt P28702); conditions: read-out: EC50 for the hRXRβ isoform
# hRXR [1] = conditions: Caco-2 cells
# hRXR [2] = conditions: Caco-2 cells; remark: listed apart in the source
# Sequence of hRXRβ (P28702 whole entry, canonical isoform): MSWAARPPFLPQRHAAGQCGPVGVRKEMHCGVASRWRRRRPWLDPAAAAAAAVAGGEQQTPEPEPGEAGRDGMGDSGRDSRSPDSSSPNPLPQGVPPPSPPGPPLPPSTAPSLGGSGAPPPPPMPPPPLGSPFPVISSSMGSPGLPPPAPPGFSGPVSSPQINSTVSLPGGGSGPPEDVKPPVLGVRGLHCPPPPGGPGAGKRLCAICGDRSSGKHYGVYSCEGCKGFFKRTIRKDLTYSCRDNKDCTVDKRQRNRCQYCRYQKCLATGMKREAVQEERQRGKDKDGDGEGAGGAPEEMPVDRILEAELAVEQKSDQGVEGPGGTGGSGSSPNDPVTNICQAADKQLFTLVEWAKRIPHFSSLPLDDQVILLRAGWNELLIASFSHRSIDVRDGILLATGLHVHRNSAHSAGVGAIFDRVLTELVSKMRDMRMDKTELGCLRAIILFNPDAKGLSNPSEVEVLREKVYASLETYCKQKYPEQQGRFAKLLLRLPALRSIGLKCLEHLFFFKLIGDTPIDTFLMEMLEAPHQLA
SMILES,pEC50 (hRXRβ),pEC50 (hRXR [1]),pKd (hRXR [2])
Cc1cc2c(cc1-c1cc(/C=C/C(=O)O)ccc1O)C(C)(C)CCC2(C)C [CD3254],~8.00,,
C=C(c1ccc(C(=O)O)c(F)c1)c1cc2c(cc1C)C(C)(C)CCC2(C)C [compound 3],,7.37,7.92
